The values below come from patent US9611224B2 (Hoffmann-La Roche Inc., priority 2012, dated 2017).

Where a name gives a salt, the structure may show the parent alone.

The target of one assay is BIR3 domain of XIAP (Homo sapiens (Human), UniProt P98170). Briefly: TR-FRET assay for BIR3 (inhibition of binding to Peptide A).
Chain of BIR3 domain of XIAP (P98170 other isoform, or with tags, fused parts or gaps): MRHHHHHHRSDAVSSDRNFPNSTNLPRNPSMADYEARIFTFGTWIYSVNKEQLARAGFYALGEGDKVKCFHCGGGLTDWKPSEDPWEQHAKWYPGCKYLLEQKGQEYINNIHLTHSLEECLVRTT
Conditions: not given
On the procedure:
TR-FRET Assay for BIR2 and BIR3
Percentage of inhibition at each concentration was determined to generate an IC50 value for each test compound.
Background: TR-FRET usually uses a lanthanide donor and a delayed reading to cut background.
A word on the IC50: it is the point on the concentration scale where inhibition reaches its midpoint. High values mean lower potency, low ones higher potency. `CN[C@@H](C)C(=O)N[C@H]1CCc2ccccc2N(Cc2c(OC)ccc3cc(C(F)(F)F)ccc23)C1=O` [Example 47l, (S)—N—[(S)-1-(2-Methoxy-6-trifluoromethyl-naphthalen-1-ylmethyl)-2-oxo-2,3,4,5-tetrahydro-1H-benzo[b]azepin-3-yl]-2-methylamino-propionamide hydrochloride] came in with a half-maximal inhibitory concentration (IC50) of 40.4 µM. This counts as double-digit micromolar.

The same assay, now with this note: 6x His-tagged BIR3 domain (aa 241-356 of XIAP), 20 nM Peptide A, 10 concentrations.
As to `CN[C@@H](C)C(=O)N[C@H]1CCc2ccccc2N(Cc2cccc3cccc(Br)c23)C1=O` [Example 47hh, (S)—N—[(S)-1-(8-Bromo-naphthalen-1-ylmethyl)-2-oxo-2,3,4,5-tetrahydro-1H-benzo[b]azepin-3-yl]-2-methylamino-propionamide hydrochloride], the IC50 was > 54.8 µM. As for `C#Cc1ccc2ccccc2c1CN1C(=O)[C@@H](NC(=O)[C@H](C)NC)CCc2ccccc21` [Example 47i, (S)—N—[(S)-1-(2-Ethynyl-naphthalen-1-ylmethyl)-2-oxo-2,3,4,5-tetrahydro-1H-benzo[b]azepin-3-yl]-2-methylamino-propionamide hydrochloride], the IC50 was > 54.8 µM. As to `CN[C@@H](C)C(=O)N[C@H]1CCc2ccccc2N(Cc2c(OC)cnc3ccccc23)C1=O` [Example 47ii, (S)—N—[(S)-1-(3-Methoxy-quinolin-4-ylmethyl)-2-oxo-2,3,4,5-tetrahydro-1H-benzo[b]azepin-3-yl]-2-methylamino-propionamide hydrochloride], the IC50 turned out to be 44.9 µM. In turn, `C#Cc1cnc2ccccc2c1CN1C(=O)[C@@H](NC(=O)[C@H](C)NC)CCc2ccccc21` [Example 47j, (S)—N—[(S)-1-(3-Ethynyl-quinolin-4-ylmethyl)-2-oxo-2,3,4,5-tetrahydro-1H-benzo[b]azepin-3-yl]-2-methylamino-propionamide hydrochloride] yielded a 50% inhibitory concentration (IC50) of 37.2 µM.

Regarding `CN[C@@H](C)C(=O)N[C@H]1CCc2ccccc2N(Cc2cccc3ccsc23)C1=O` [Example 47jj, (S)—N—((S)-1-Benzo[b]thiophen-7-ylmethyl-2-oxo-2,3,4,5-tetrahydro-1H-benzo[b]azepin-3-yl)-2-methylamino-propionamide hydrochloride], the IC50 is > 54.8 µM. In the case of `CN[C@@H](C)C(=O)N[C@H]1CCc2ccccc2N(Cc2c(C3CC3)ccc3ccccc23)C1=O` [Example 47k, (S)—N—[(S)-1-(2-Cyclopropyl-naphthalen-1-ylmethyl)-2-oxo-2,3,4,5-tetrahydro-1H-benzo[b]azepin-3-yl]-2-methylamino-propionamide hydrochloride], the IC50 was > 54.8 µM.

`CN[C@@H](C)C(=O)N[C@H]1CCc2ccccc2N(Cc2ccc(C#N)c3ccccc23)C1=O` [Example 47kk, (S)—N—[(S)-1-(4-Cyano-naphthalen-1-ylmethyl)-2-oxo-2,3,4,5-tetrahydro-1H-benzo[b]azepin-3-yl]-2-methylamino-propionamide hydrochloride]: the concentration for half-maximal inhibition (IC50) is > 54.8 µM. As to `CN[C@@H](C)C(=O)N[C@H]1CCc2ccccc2N(Cc2c(C)c(C)cc(C)c2C)C1=O` [Example 47ll, (S)-2-Methylamino-N—[(S)-2-oxo-1-(2,3,5,6-tetramethyl-benzyl)-2,3,4,5-tetrahydro-1H-benzo[b]azepin-3-yl]-propionamide hydrochloride], the half-maximal inhibitory concentration (IC50) is > 57.6 µM.

Consider `CN[C@@H](C)C(=O)N[C@H]1CCc2ccccc2N(Cc2ccc(CCc3ccccc3)c3ccccc23)C1=O` [Example 49h, (S)-2-Methylamino-N—[(S)-2-oxo-1-(4-phenethyl-naphthalen-1-ylmethyl)-2,3,4,5-tetrahydro-1H-benzo[b]azepin-3-yl]-propionamide hydrochloride], for which the half-inhibitory concentration (IC50) is > 54 µM. As for `CN[C@@H](C)C(=O)N[C@H]1CCc2ccccc2N(Cc2c(OC)ccc3cc(Cc4ccccc4)ccc23)C1=O` [Example 49i, (S)—N—[(S)-1-(6-Benzyl-2-methoxy-naphthalen-1-ylmethyl)-2-oxo-2,3,4,5-tetrahydro-1H-benzo[b]azepin-3-yl]-2-methylamino-propionamide hydrochloride], the IC50 is > 54.8 µM. Turning to `CN[C@@H](C)C(=O)N[C@H]1CCc2ccccc2N(Cc2cccc3c(Cc4ccccc4)cccc23)C1=O` [Example 49k, (S)—N—[(S)-1-(5-Benzyl-naphthalen-1-ylmethyl)-2-oxo-2,3,4,5-tetrahydro-1H-benzo[b]azepin-3-yl]-2-methylamino-propionamide hydrochloride], the concentration for half-maximal inhibition (IC50) was > 54.8 µM. Still for that read-out and setting: in the case of `CN[C@@H](C)C(=O)N[C@H]1CCc2ccccc2N(Cc2ccc(C3CC3)c3ccccc23)C1=O` [Example 49m, (S)—N—[(S)-1-(4-Cyclopropyl-naphthalen-1-ylmethyl)-2-oxo-2,3,4,5-tetrahydro-1H-benzo[b]azepin-3-yl]-2-methylamino-propionamide hydrochloride] it was > 54.8 µM; in that of `CN[C@@H](C)C(=O)N[C@H]1CCc2ccccc2N(Cc2cccc3c(CN4CCNCC4)cccc23)C1=O` [Example 49n, (S)-2-Methylamino-N—[(S)-2-oxo-1-(5-piperazin-1-ylmethyl-naphthalen-1-ylmethyl)-2,3,4,5-tetrahydro-1H-benzo[b]azepin-3-yl]-propionamide hydrochloride], > 54.8 µM. Regarding `CN[C@@H](C)C(=O)N[C@H]1CCc2ccccc2N(Cc2ccc(CN3CCOCC3)c3ccccc23)C1=O` [Example 49o, (S)-2-Methylamino-N—[(S)-1-(4-morpholin-4-ylmethyl-naphthalen-1-ylmethyl)-2-oxo-2,3,4,5-tetrahydro-1H-benzo[b]azepin-3-yl]-propionamide hydrochloride], the half-maximal inhibitory concentration (IC50) is > 54.8 µM. The same measure, in the same setting: under `CN[C@@H](C)C(=O)N[C@H]1CCc2ccccc2N(Cc2ccc(CN3CCCCC3)c3ccccc23)C1=O` [Example 49q, (S)-2-Methylamino-N—[(S)-2-oxo-1-(4-piperidin-1-ylmethyl-naphthalen-1-ylmethyl)-2,3,4,5-tetrahydro-1H-benzo[b]azepin-3-yl]-propionamide hydrochloride] stands > 54.8 µM; under `CN[C@@H](C)C(=O)N[C@H]1CCc2ccccc2N(Cc2c(OC)ccc3cc(CN4CCNCC4)ccc23)C1=O` [Example 49r, (S)—N—[(S)-1-(2-Methoxy-6-piperazin-1-ylmethyl-naphthalen-1-ylmethyl)-2-oxo-2,3,4,5-tetrahydro-1H-benzo[b]azepin-3-yl]-2-methylamino-propionamide hydrochloride], > 54.8 µM; under `CN[C@@H](C)C(=O)N[C@H]1CCc2ccccc2N(Cc2ccc(CN3CCNCC3)c3ccccc23)C1=O` [Example 49s, (S)-2-Methylamino-N—[(S)-2-oxo-1-(4-piperazin-1-ylmethyl-naphthalen-1-ylmethyl)-2,3,4,5-tetrahydro-1H-benzo[b]azepin-3-yl]-propionamide hydrochloride], > 54.8 µM. Consider `CN[C@@H](C)C(=O)N[C@H]1CCc2ccccc2N(Cc2cccc3cccc(C4CC4)c23)C1=O` [Example 49t, (S)—N—[(S)-1-(8-Cyclopropyl-naphthalen-1-ylmethyl)-2-oxo-2,3,4,5-tetrahydro-1H-benzo[b]azepin-3-yl]-2-methylamino-propionamide hydrochloride], for which the 50% inhibitory concentration (IC50) was > 54.8 µM.

As for `CN[C@@H](C)C(=O)N[C@H]1CCc2ccccc2N(Cc2c(OC)ccc3cc(-c4ccccc4)ccc23)C1=O` [Example 49u, (S)—N—[(S)-1-(2-Methoxy-6-phenyl-naphthalen-1-ylmethyl)-2-oxo-2,3,4,5-tetrahydro-1H-benzo[b]azepin-3-yl]-2-methylamino-propionamide hydrochloride], the IC50 was > 54.8 µM. `CN[C@@H](C)C(=O)N[C@H]1CCc2ccccc2N(Cc2c(OC)ccc3cc(C(=O)OC)ccc23)C1=O` [Example 50, 6-Methoxy-5-[(S)-3-((S)-2-methylamino-propionylamino)-2-oxo-2,3,4,5-tetrahydro-benzo[b]azepin-1-ylmethyl]-naphthalene-2-carboxylic acid methyl ester hydrochloride]: the IC50 is > 54.8 µM. `CN[C@@H](C)C(=O)N[C@H]1CCc2ccccc2N(Cc2c(OC)ccc3cc(C(=O)O)ccc23)C1=O` [Example 51, 6-Methoxy-5-[(S)-3-((S)-2-methylamino-propionylamino)-2-oxo-2,3,4,5-tetrahydro-benzo[b]azepin-1-ylmethyl]-naphthalene-2-carboxylic acid]: the 50% inhibitory concentration (IC50) is > 54.8 µM. On the same count and under the same terms, in the case of `CN[C@@H](C)C(=O)N[C@H]1CCc2ccccc2N(Cc2c(OC)ccc3cc(C(=O)NS(C)(=O)=O)ccc23)C1=O` [Example 52a, (S)—N—[(S)-1-(6-Methanesulfonylaminocarbonyl-2-methoxy-naphthalen-1-ylmethyl)-2-oxo-2,3,4,5-tetrahydro-1H-benzo[b]azepin-3-yl]-2-methylamino-propionamide] it was 45 µM; in that of `CCCS(=O)(=O)NC(=O)c1cccc2c(CN3C(=O)[C@@H](NC(=O)[C@H](C)NC)CCc4ccccc43)c(OC)ccc12` [Example 52b, (S)—N—{(S)-1-[2-Methoxy-5-(propane-1-sulfonylaminocarbonyl)-naphthalen-1-ylmethyl]-2-oxo-2,3,4,5-tetrahydro-1H-benzo[b]azepin-3-yl}-2-methylamino-propionamide hydrochloride], > 54.8 µM; in that of `CN[C@@H](C)C(=O)N[C@H]1CCc2ccccc2N(Cc2c(OC)ccc3c(C(=O)NS(C)(=O)=O)cccc23)C1=O` [Example 52c, (S)—N—[(S)-1-(5-Methanesulfonylaminocarbonyl-2-methoxy-naphthalen-1-ylmethyl)-2-oxo-2,3,4,5-tetrahydro-1H-benzo[b]azepin-3-yl]-2-methylamino-propionamide hydrochloride], > 54.8 µM. `CN[C@@H](C)C(=O)N[C@H]1CCc2ccccc2N(Cc2c(OC)ccc3c(C(=O)OC)cccc23)C1=O` [Example 52e, 6-Methoxy-5-[(S)-3-((S)-2-methylamino-propionylamino)-2-oxo-2,3,4,5-tetrahydro-benzo[b]azepin-1-ylmethyl]-naphthalene-1-carboxylic acid methyl ester hydrochloride]: the IC50 is > 54.8 µM.
